Measurements from paper PMC4006873 (Biochemistry, 2013).
Peptide text beside a SMILES is read from it. * marks the point of attachment. X1 = C[C@@H]1C[C@H]2[C@@H]3CCC4=CC(=O)C=C[C@]4(C)[C@@]3(F)[C@@H](O)C[C@]2(C)[C@@]1(O)C(=O)CSCCC(=O)*

Experiments:
Gal4-GR★-VP16 = target: T1, Gal4-GR★-VP16 (Homo sapiens, UniProt P04150, C638G); assay: GIGI in cell lysates, stably transfected U2OS; details: U2OS(GIGI) cells; for Z′-factor of GIGI assay: 1 μM vs untreated, 24 h, n = 150
T1 sequence (P04150 524-758 C638G): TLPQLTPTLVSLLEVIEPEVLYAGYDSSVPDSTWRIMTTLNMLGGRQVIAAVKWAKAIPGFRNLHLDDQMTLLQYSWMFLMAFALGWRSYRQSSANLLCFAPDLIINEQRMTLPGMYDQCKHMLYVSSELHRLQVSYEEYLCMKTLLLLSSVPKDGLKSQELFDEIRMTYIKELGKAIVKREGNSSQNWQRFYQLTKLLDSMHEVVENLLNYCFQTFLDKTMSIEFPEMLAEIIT

GR★-GFP [1] = target: T2, GR★-GFP (Homo sapiens, UniProt P04150, C638G); assay: GIGT nuclear translocation, transiently transfected cells expressing GR★-GFP; format: cell-based; details: HeLa cells expressing GR★-GFP, 500 nM, 30 min
T2 sequence (P04150 1-777 C638G): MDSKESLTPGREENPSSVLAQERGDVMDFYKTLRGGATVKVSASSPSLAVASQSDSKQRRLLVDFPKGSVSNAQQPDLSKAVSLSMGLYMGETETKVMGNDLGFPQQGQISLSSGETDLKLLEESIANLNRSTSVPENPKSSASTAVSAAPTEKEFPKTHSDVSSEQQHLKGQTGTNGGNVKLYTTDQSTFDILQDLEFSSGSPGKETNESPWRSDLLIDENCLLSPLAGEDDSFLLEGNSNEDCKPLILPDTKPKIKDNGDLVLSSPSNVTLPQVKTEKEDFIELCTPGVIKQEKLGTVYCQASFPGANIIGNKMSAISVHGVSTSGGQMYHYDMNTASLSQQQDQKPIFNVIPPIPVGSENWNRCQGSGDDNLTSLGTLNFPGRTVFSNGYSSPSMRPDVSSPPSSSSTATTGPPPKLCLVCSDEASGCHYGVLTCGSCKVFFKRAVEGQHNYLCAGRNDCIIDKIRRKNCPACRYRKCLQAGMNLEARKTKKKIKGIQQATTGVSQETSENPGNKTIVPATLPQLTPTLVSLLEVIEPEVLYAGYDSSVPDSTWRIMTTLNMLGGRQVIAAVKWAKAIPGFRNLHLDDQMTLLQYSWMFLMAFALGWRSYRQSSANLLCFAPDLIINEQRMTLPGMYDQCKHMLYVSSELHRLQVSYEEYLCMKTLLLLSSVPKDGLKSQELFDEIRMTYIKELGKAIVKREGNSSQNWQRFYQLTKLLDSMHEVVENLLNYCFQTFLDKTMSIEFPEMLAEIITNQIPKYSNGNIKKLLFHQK

GR★-GFP [2] = target: T2, GR★-GFP; assay: High-content imaging of GIGT in stably transfected Saos-2; format: cell-based; details: Saos-2(GIGT) cells, 30 min; for Z′-factor of GIGT assay: 1 μM vs untreated
rat C656G GR = details: read-out: equilibrium dissociation constant (Kd), in vitro; cited from earlier work

Row | SMILES | eGFP expression after treatment and cell lysis (Gal4-GR★-VP16; 1 μM) | Z′-factor of GIGI assay (Gal4-GR★-VP16) | translocation ratio (TR) (GR★-GFP [1]) | Z′-factor of GIGT assay (GR★-GFP [2]) | translocation ratio (TR) (GR★-GFP [2]; 1 μM) | Kd (rat C656G GR) [nM]
1 | CC[C@H](C)[C@H](NC(=O)[C@H](CC(C)C)NC(=O)[C@H](CC(=O)O)NC(=O)[C@H](CCCNC(=N)N)NC(=O)[C@@H](NC(=O)[C@@H]1CCCN1C(=O)[C@H](C)NC(=O)[C@H](CC(=O)O)NC(=O)[C@H](CC(=O)O)NC(=O)CNC(=O)[C@@H]1CCCN1C(=O)[C@H](Cc1ccc(O)cc1)NC(=O)[C@@H](NC(=O)[C@@H]1CCCN1C(=O)[C@H](CCC(N)=O)NC(=O)[C@H](CO)NC(=O)[C@@H]1CCCN1C(=O)CN)[C@@H](C)O)C(C)C)C(=O)N[C@@H](CCCNC(=N)N)C(=O)N[C@@H](Cc1ccccc1)C(=O)N[C@@H](Cc1ccc(O)cc1)C(=O)N[C@@H](CCCNC(=N)N)C(=O)N[C@@H](CC(=O)O)C(=O)N[C@@H](CC(C)C)C(=O)N[C@@H](CCCNC(=N)N)C(=O)N[C@@H](CCCNC(=N)N)C(=O)N[C@@H](Cc1ccc(O)cc1)C(=O)N[C@@H](CC(C)C)C(=O)N[C@@H](CC(N)=O)C(=O)N[C@H](C(=O)N[C@H](C(=O)N[C@H](C(=O)N[C@@H](CCCNC(=N)N)C(=O)N[C@@H](Cc1c[nH]cn1)C(=O)N[C@@H](CCCNC(=N)N)C(=O)N[C@@H](Cc1ccc(O)cc1)C(=O)N[C@@H](CCCCNC(=O)CCSCC(=O)[C@@]1(O)[C@H](C)C[C@H]2[C@@H]3CCC4=CC(=O)C=C[C@]4(C)[C@@]3(F)[C@@H](O)C[C@@]21C)C(N)=O)[C@@H](C)O)C(C)C)C(C)C [5.3^Dex] (H-GPSQPTYPGDDAPVRDLIRFYRDLRRYLNVVTRHRYK(X1)-NH2; N-terminus and C-terminus assumed) | significant eGFP expression | 0.56 | 2.79 ± 0.39 | 0.54 | 4.01 ± 0.30 | –
2 | CC(C)C[C@H](NC(=O)[C@H](Cc1c[nH]cn1)NC(=O)[C@H](CCCNC(=N)N)NC(=O)[C@H](CO)NC(=O)[C@H](CC(C)C)NC(=O)[C@@H](NC(=O)[C@H](Cc1ccccc1)NC(=O)[C@H](C)NC(=O)[C@H](CCCCN)NC(=O)CNC(=O)[C@H](CS)NC(=O)[C@@H](NC(=O)[C@H](CC(N)=O)NC(=O)[C@H](CS)NC(=O)[C@H](CO)NC(=O)[C@H](Cc1ccc(O)cc1)NC(=O)[C@@H](N)Cc1c[nH]c2ccccc12)C(C)C)C(C)C)C(=O)N[C@@H](CC(N)=O)C(=O)N[C@@H](CCCNC(=N)N)C(=O)N[C@@H](Cc1c[nH]cn1)C(=O)N[C@@H](CC(C)C)C(=O)N[C@@H](CCCNC(=N)N)C(=O)N[C@H](C(=O)N[C@@H](Cc1c[nH]cn1)C(=O)N[C@@H](CCCNC(=N)N)C(=O)N[C@@H](CCCNC(=N)N)C(=O)N[C@@H](C)C(=O)N[C@H](C(=O)N[C@@H](CCCCNC(=O)CCSCC(=O)[C@@]1(O)[C@H](C)C[C@H]2[C@@H]3CCC4=CC(=O)C=C[C@]4(C)[C@@]3(F)[C@@H](O)C[C@@]21C)C(N)=O)[C@@H](C)O)C(C)C [ZF5.3^Dex] (H-WYSCNVCGKAFVLSRHLNRHLRVHRRATK(X1)-NH2; N-terminus and C-terminus assumed) | – | 0.42 | – | 0.56 | – | –
3 | C[C@@H]1C[C@H]2[C@@H]3CCC4=CC(=O)C=C[C@]4(C)[C@@]3(F)[C@@H](O)C[C@]2(C)[C@@]1(O)C(=O)CO [Dex, dexamethasone] | – | – | – | – | – | 0.55
